Measurements published in patent US10071163B2, “Compositions and methods for selective delivery of oligonucleotide molecules to specific neuron types” (nLife Therapeutics, S.L., priority 2010, dated 2018).

How the values were obtained:
5-HTT mRNA = experiment: In situ hybridization of 5-HTT mRNA after intranasal 5-HTT-NLF-siRNA; assay type: in vivo, mice (C57BL/6J)
Description: Twenty-four h after treatment, mice were killed by decapitation and the brains rapidly removed, frozen on dry ice and stored at −20° C. Tissue sections, 14 μm thick, were cut using a microtome-cryostat, thaw-mounted onto APTS (3-aminopropyltriethoxysilane) coated slides and kept at −20° C. until use.
To determine 5-HTT mRNA expression level, in situ hybridization assays were performed using an oligodeoxyribonucleotide probe specific for 5-HIT, complementary to bases 820-863 (Mouse, GenBank Accession Number: NM_010484). The 5-HTT oligonucleotide was individually labeled (2 pmol) at its 3′-end with [^33P]-dATP (>2500 Ci/mmol) using terminal deoxynucleotidyltransferase, purified by centrifugation using QIAquick Nucleotide Removal Kit. The protocols for single label in situ hybridization were based on previously described procedures. Briefly, frozen tissue sections, as described in example 2, were first brought to room temperature, fixed for 20 min at 4° C. in 4% paraformaldehyde in phosphate buffered saline (1×PBS: 8 mM Na2HPO4, 1.4 mM KH2PO4, 136 mM NaCl, 2.6 mM KCl), washed for 5 min in 3×PBS at room temperature, twice for 5 min each in 1×PBS and incubated for 2 min at 21° C. in a solution of pre-digested pronase at a final concentration of 24 U/ml in 50 mM Tris-HCl pH 7.5, 5 mM EDTA. The enzymatic activity was stopped by immersion for 30 s in 2 mg/ml glycine in 1×PBS. […]

[1] = system: serotonin transporter (5-HTT); experiment: [3H]citalopram autoradiographic binding of serotonin transporter after intranasal 5-HTT-NLF-siRNA; assay type: in vivo, mice; conditions: vs vehicle or NLF-nonsense-siRNA, FIG. 15B-C
Excerpt: 24-48. h after NLF-siRNA intranasal administration, mice were killed and their brains were removed and serial coronal sections of 14 μm thickness were obtained at the following AP coordinates, in mm, relative to bregma (Franklin and Paxinos, 1997): 2.2 (prefrontal cortex-PFC), 1.1 to 0.6 (caudate putamen—CPu, lateral and medial septal nucleus—Sep, ventral pallidum—VP), −1.5 to −1.8 (hippocampus—HPC, hypothalamus—Hip) and −4.24 to −4.96 (dorsal raphe nucleus—DR and median raphe nucleus—MnR). Briefly, frozen tissue sections were thawed and dried, preincubated in 50 mM Tris-HCl buffer (pH 7.4 at 25° C.) containing 120 mM NaCl and 5 mM KCl for 15 mm at room temperature. […] After incubation and washing, tissue sections were dipped in distilled ice-cold water and dried rapidly under a cold air stream. Tissues were exposed to tritium-sensitive film together with plastic ^3H-standards for 40 days at 4° C. Quantitative analysis of the autoradiograms was done with AIS computerized image analysis system. By using tissue-calibrated data from the co-exposed radioactive standards, OD values of autoradiograms were transformed to levels of radioactivity bound (nCi/mg tissue protein) to specific brain regions in tissue sections.

5-HT1AR [2] = experiment: [3H]8-OH-DPAT autoradiographic binding of 5-HT1AR protein after i.c.v. infusion; assay type: in vivo, mice; conditions: 30 μg/2.5 μl/1 day into D3V
Description: To assay the density of 5-HT1AR protein we used [^3H]8-OH-DPAT for the autoradiographic visualization of 5-HT1A receptor sites. The experimental incubation conditions for [^3H]8-OH-DPAT have been previously described in the state of the art. Briefly, frozen tissue sections were thawed and dried, preincubated in 170 mM Tris-HCl pH 7.6, 4 mM CaCl2 and 0.01% ascorbic acid for 30 minutes at room temperature, and then incubated in the same buffer, including 1 nM [^3H]—OH-DPAT (234.0 Ci/mmol) and 10^−5 M pargyline for 60 minutes at room temperature. Non-specific binding was defined as that remaining in the presence of 10^−5 M 5-HT. After incubation and washing, tissue sections were dipped in distilled ice-cold water and dried rapidly under a cold air stream. Tissues were exposed to tritium-sensitive film together with plastic ^3H-standards for 60 days at 4° C.
A set of molecules (vehicle, ns naked siRNA, ns NLF-siRNA, naked siRNA and NLF-siRNA groups), as described in example 3, were infused at 30 μg/2.5 μl/1 day (2.3 nmoles) into dorsal 3rd ventricle (D3V) at the following stereotaxic coordinates (in mm: AP: −2.0, L: 0, DV: −2.1) using similar mice strain and infusion system of example 2. […]

[3] = system: presynaptic 5-HT1A receptor; experiment: Microdialysis of 5-HT in medial prefrontal cortex after acute fluoxetine, i.c.v. siRNA; assay type: in vivo, mice; conditions: after systemic fluoxetine 20 mg/kg i.p.; siRNA 30 μg i.c.v.; FIG. 9
Excerpt: The increase of extracellular 5-HT produced by reuptake blockade of serotonin transporter (SERT) activates 5-HT1A autoreceptors in the midbrain raphe nuclei, suppressing cell firing and terminal release, an effect that attenuates the extracellular 5-HT increase produced by reuptake blockade. Consequently, the activation of postsynaptic serotonin receptors responsible for the therapeutic effect is lower than expected. It is known that the blockade of these negative feedback mechanisms with 5-HT1A receptor antagonists (i.e pindolol) potentiates the 5-HT increase produced by SSRIs and, therefore, might serve to accelerate the clinical effects of SSRIs.

5-HT1AR [4] = target: T1, 5-HT1AR (Mus musculus, UniProt Q64264); experiment: Microdialysis of 5-HT in mPFC after 8-OH-DPAT, intranasal siRNA; conditions: intranasal 15 μg/5 μl in each nostril; 8-OH-DPAT 0.5 mg/kg i.p.; FIG. 12B
T1 sequence (Q64264 1-421): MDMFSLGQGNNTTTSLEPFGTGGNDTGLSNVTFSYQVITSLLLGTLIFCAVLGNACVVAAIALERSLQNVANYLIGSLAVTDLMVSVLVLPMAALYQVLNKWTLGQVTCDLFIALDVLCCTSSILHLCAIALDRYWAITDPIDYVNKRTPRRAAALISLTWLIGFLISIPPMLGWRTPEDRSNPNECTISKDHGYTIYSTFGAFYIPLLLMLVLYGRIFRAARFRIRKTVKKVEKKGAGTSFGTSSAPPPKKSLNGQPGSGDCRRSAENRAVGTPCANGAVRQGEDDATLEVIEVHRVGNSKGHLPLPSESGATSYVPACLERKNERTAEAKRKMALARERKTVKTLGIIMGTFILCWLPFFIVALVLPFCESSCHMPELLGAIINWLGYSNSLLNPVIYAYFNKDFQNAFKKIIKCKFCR
Description: To evaluate 5-HT release, an intracerebral microdyalisis procedure was used as has been described in the state of the art. In brief, the shaft of the probe was made up of 15-mm long, 25-gauge (501 μm OD, 300 μm ID) stainless-steel tubing. The inflow and outflow tubes threaded through the 25 gauge tubing consisted of fused silica capillary tubing of 110 μm OD and 40 μM ID. The upper exposed ends of silica tubing were inserted into 7-mm long, 27 gauge (410 μm OD, 220 μM ID) stainless-steel tubing. Mice were anesthetized with sodium pentobarbital (40 mg/kg, i.p.) and positioned in a stereotaxic frame.
Dialysate samples of 60 μl were collected every 30 min in microcentrifuge vials.
At the completion of dialysis experiments, mice were sacrificed and the brains were immediately removed and frozen at −70° C. Coronal sections (50 μm) of the brain were cut afterwards on a cryostat and stained with cresyl violet, according to standard procedures, for localization of the perfusion site. Only data obtained from animals with histologically correct probe placements were used for subsequent statistical analysis.
The retention time for 5-HT was 3.5-4 min and the detection limit was 2 fmol/sample.
Mice were anesthetized with pentobarbital 40 mg/kg i.p and positioned on their backs. PBS or NLF-siRNA was slowly and gently dropped in alternating nostril with a micropipette tip in 5-ul aliquots.

5-HT1AR [5] = target: T1, 5-HT1AR; experiment: 8-OH-DPAT-induced hypothermia after i.c.v. infusion into D3V; assay type: in vivo, mice; design: we used [^3H]8-OH-DPAT for the autoradiographic visualization of 5-HT1A receptor sites; from tissue; host or cells: mouse brain (dorsal raphe nucleus, prefrontal cortex, hippocampus): living animal or frozen 14 µm sections; conditions: 30 μg/2.5 μl/1 day into D3V; 24 h after infusion; 8-OH-DPAT 1 mg/kg i.p.; FIG. 6
Description: To test a functional measure of the pre-synaptic 5-HT1AR activity, we evaluated the hypothermia response induced by (R)-(+)-8-hydroxy-2-(di-n-propylamino)tetralin hydrobromide (8-OH-DPAT, a selective 5-HT1AR agonist) 24 hs after the infusion of a pool of naked siRNA or NLF-siRNA into dorsal raphe nucleus (DRN, 0.3 μg (0.02 nmoles)/1 μl/2 days). […] Mice were kept in individual cages in experimental room at stable temperature of 22° C. 1 h before the experiment. All experiments were carried out between 10:00 a.m. and 14:00 p.m. Body temperature was measured by inserting a lubricated probe into the rectum 5 min before the reading of the temperature while the mice was freely moving. The readings were obtained with a digital thermometer. A basal value was measured 5 min before and 15, 30, 60 and 120 min after 8-OH-DPAT administration. […] Body temperature was assessed 24 hs after the last application of 5-HT1A-targeting siRNAs into DRN in different groups of mice and in their respective controls. […]
To evaluate the NLF-siRNA effect on the functional features of 5-HT1AR we assayed hypothermia response induced by 8-OH-DPAT and 5-HT release in the medial prefrontral cortex (mPFC). We evaluated the hypothermia response induced by 8-OH-DPAT 24 hs after the infusion of a pool of naked siRNAs or NLF-siRNA (as described in example 2) into dorsal 3rd ventricle (D3V, 30 μg/2.5 μl/1 day).

Substance | 5-HTT mRNA level in dorsal (DR) and median (MnR) raphe nuclei (5-HTT mRNA; intranasal 10 and 30 μg, vs vehicle and nonsense-NLF-siRNA, FIG. 15A) | knockdown of 5-HTT mRNA in dorsal raphe nuclei (5-HTT mRNA; intranasal, both doses (10 and 30 μg/mice), three antero-posterior coordinates, FIG. 14A) | serotonin transporter levels in the different brain areas [1] | knockdown effect on 5-HT1AR (5-HT1AR [2]) | dyalisate serotonin concentration in medial prefrontal cortex, higher than baseline [3] [%] | extracellular 5-HT levels in mPFC following systemic 8-OH-DPAT (5-HT1AR [4]) | hypothermia response induced by 8-OH-DPAT (5-HT1AR [5])
5-HTT-NLF-siRNA: 5-HTT-targeted siRNA (SEQ ID NO 14/15) conjugated to a group of formula (I) and one targeting agent (sertraline) (chain 1 GCUAGCUACAACAAGUUCATT; chain 2 UGAACUUGUUGUAGCUAGCTT; further chemistry not given here) | reduction of 5-HTT mRNA level | specific knowdown of 5-HTT mRNA | reduction of the serotonin transporter levels |  |  |  | 
ns NLF-siRNA: nonsense siRNA (SEQ ID NO 56/57) conjugated to a group of formula (I) and one targeting agent; control (chain 1 AGUACUGCUUACGAUACGG; chain 2 CCGUAUCGUAAGCAGUACU; further chemistry not given here) |  |  |  | did not show a knockdown effect | ~50 | reduced | typical curve in the hypothermia response
